Reference: patent US20040214891A1, “Method for inhibiting pathogenic bacteria and fungi growth and microbicidal composition” (priority 2003, published 2004)

What was measured:
bacteria tested = assay: bactericidal activity of TauBr compared with TauCl at pH above 7; assay type: cell-based
[1] = system: Staphylococcus epidermidis; assay: microbicidal activity of TauBr solution, incubation with bacteria then colony count; assay type: cell-based; conditions: 0.5 h, 30 minutes incubation at room temperature, range tested 1-1000 μM, read-out: inhibitory concentration (MIC)
Method: (§1) For research purposes, two bacterial strains commonly found on the human skin were chosen: Propionibacterium acnes (causing acne) and Staphylococcus epidermides (being a part of physiological flora of the skin). Selected microorganisms were lyophilized and kept at room temperature. To prepare strain cultures for immune research the lyophilisate was dissolved in 0.5 ml of 0.9% NaCl solution. The mixture was stirred and seeded on a growth medium. Incubation was conducted in anaerobic conditions at 37° C. for 48-72 hrs. A suspension of bacteria at a concentration of 5×10^9 CFU/ml was then prepared.
(§2) In order to assess the microbicidal activity of the TauBr solution, the Proponibacterium acnes and the Staphylococcus epidermides bacteria were incubated in closed tubes with TauBr solution. The range of concentrations tested was 1-1000 μM. The incubation was conducted at room temperature for 30 minutes. When this process was completed, bacteria were seeded onto a growth medium. After an appropriate period of time the number of developed colonies were counted. Next, estimation of the susceptibility of the Proponibacterium acnes and Staphylococcus epidermides bacteria to the agent tested [TauBr] was determined.

Propionibacterium acnes = assay: as above; assay type: cell-based; conditions: Cutibacterium acnes, 0.5 h, 30 minutes incubation at room temperature, range tested 1-1000 μM, read-out: inhibitory concentration (MIC)
Method: as §1, §2

bacteria on the skin [2] = assay: imprinting method on skin of volunteers, gel, cream and powder preparations; assay type: in vivo, human; conditions: above 5 mM taurine bromamine; for example Staphylococcus epidermides
Method: Further studies of the antibacterial activity of taurine bromamine were conducted using a gel, a cream and a powder. In these tests, applications with a semisolid consistency and plastic features were made, called hereinafter, pharmaceutical or cosmetic preparations or compositions, particularly a taurine bromamine solution in an ethyl-cellulose gel with pH 5-pH 7, a cetomacrogol cream with pH 5-pH 7 and a powder suspension in a taurine bromamine solution.
The powder suspension in taurine bromamine solution was prepared on a base of liquid powder changing the proportions of the components by weight. The suspension consisted of, by weight: 14.0-60.0% of 10 mM Taurine bromamine solution, 10.0-24.0% of talc, 14.0-40.0% of glycerol, 5.0-30.0% of distilled water and 0.5-2.0% of menthol. The constituents of the suspension were stirred thoroughly until an homogenous dispersion of the solid phase was obtained. […]
The preparations were left on the skin area for 30 minutes and then the plates were pressed down so that the site exposed to the activity of the various substances was imprinted centrally on the plate. […] Wherever it was possible, all cultivated colonies of relatively aerobic bacteria and anaerobic bacteria were counted, giving their occurrence per 1 cm^2 of the skin. […]

bacteria on the skin [3] = assay: imprinting method with Rodac plates on dorsal skin of volunteers, solutions on gauze pads; assay type: in vivo, human; conditions: 30 minutes
Excerpt: In order to conduct further tests to ascertain the antibacterial activity of the formulation containing taurine bromamine and prepared by the method described above, the imprinting method was chosen with use of Rodac plates with an area of 25 cm^2. For the purposes of study a Scheadler Agar Base medium produced by the firm Dico, catalogue number 212189, was used with addition of 5% ram blood. The medium was poured steadily onto the Rodac plates in aseptic conditions until a convex meniscus appeared. Before being applied, the medium was kept in enclosed conditions within a fridge at a temperature of ca. +4° C. and was used in a time not exceeding 7 days from the date of its preparation.
Tests for the antibacterial activity of taurine bromamine were conducted by performing 5 imprints of the dorsal skin on time at each of the patients examined. The skin area, on which the tests were to be performed, was determined in advance and marked with the numbers 1-5. […]
At the site marked 1—a gauze pad saturated with 0.9% inj. solution of NaCl (Polfa Lublin), which was a control substance without antibacterial activity was applied to the skin. […] Wherever possible, all the cultivated colonies of relatively aerobic and anaerobic bacteria were counted, to provide a figure for the concentration per cm^2 of the skin. […]

## O=S(=O)(O)CCNCl [TauCl, N-chloro taurine, reference compound]
Bacteria tested
  selective bactericidal properties (variable susceptibility of strains): no such selective bactericidal properties
Bacteria tested; pH above 7, subcytotoxic concentrations for mammalian cells
  bactericidal properties: no bactericidal properties

## O=S(=O)(O)CCNBr [TauBr, N-bromo taurine]
[1]
  MIC: > 125 µM
Propionibacterium acnes
  MIC: < 32 µM
Bacteria on the skin [2]
  effect on bacterial flora of normal skin: all the bacterial flora is destroyed
Bacteria tested
  selective bactericidal properties (variable susceptibility of strains): Variable susceptibility of the strains
Bacteria tested; especially at pH above 7
  bactericidal activity relative to TauCl: much stronger than TauCl
Bacteria tested; pH above 7
  bacteria destroyed: 99%
Bacteria on the skin [3]; 5 mM solution in buffer pH 7, decrease from uncountable level of ca 10^4 CFU/cm^2
  bacterial concentration on skin after treatment: 10^1-10^2 CFU/cm^2
Bacteria on the skin [3]; 4-7 mM solution in buffer pH 5-pH 7, all patients
  number of bacteria on the skin area: considerable diminution
